Data: ChEMBL document CHEMBL1132051, “4-Alkyl- and 3,4-dialkyl-1,2,3,4-tetrahydro-8-pyridono[5,6-g]quinolines: potent, nonsteroidal androgen receptor agonists” (Bioorg Med Chem Lett, 1999)
pEC50, pIC50, pKi: −log10 of the molar value.

What was measured:
Androgen receptor [1] = biological target: T1, Androgen receptor (Homo sapiens, UniProt P10275)
T1 sequence (P10275 whole entry): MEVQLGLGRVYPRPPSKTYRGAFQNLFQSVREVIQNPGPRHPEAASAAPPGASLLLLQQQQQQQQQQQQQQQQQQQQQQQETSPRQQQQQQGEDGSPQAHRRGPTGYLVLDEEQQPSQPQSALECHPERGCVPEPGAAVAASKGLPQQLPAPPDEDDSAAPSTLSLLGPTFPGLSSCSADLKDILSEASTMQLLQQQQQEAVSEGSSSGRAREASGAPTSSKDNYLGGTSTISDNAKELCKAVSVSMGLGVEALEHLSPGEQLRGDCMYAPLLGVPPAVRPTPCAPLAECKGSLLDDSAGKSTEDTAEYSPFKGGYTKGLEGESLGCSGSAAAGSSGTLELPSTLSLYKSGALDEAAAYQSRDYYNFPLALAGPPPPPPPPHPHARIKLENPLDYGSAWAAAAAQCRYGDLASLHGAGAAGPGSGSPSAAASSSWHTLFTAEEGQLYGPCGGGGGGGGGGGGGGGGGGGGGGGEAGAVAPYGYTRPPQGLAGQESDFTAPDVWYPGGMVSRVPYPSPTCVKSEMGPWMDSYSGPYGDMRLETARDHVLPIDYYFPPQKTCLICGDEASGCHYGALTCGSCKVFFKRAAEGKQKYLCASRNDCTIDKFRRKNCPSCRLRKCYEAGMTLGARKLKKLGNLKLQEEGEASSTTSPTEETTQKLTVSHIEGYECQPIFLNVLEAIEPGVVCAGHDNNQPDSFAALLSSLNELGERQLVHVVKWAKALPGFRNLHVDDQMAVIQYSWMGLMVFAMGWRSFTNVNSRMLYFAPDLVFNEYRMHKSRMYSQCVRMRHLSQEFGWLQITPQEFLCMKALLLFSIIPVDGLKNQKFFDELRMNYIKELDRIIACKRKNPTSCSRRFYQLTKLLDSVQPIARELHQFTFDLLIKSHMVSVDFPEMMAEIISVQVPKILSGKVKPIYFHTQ
Description: Antagonistic activity against human androgen receptor (hAR) in CV-1 cells using cotransfection assay

Androgen receptor [2] = biological target: T1, Androgen receptor; remark: listed apart in the source
Description: Binding affinity to the human androgen receptor (hAR), using [3H]DHT as radioligand in a competitive binding assay

Androgen receptor [3] = biological target: T1, Androgen receptor; remark: listed apart in the source
Description: Agonist activity to the human androgen receptor (hAR) in CV-1 cells

Androgen receptor [4] = biological target: T1, Androgen receptor; test: Antagonistic activity against human androgen receptor (hAR) in CV-1 cells was determined as a function of maximal inhibition of dihydrotestosterone using cotransfection assay; type: functional, cell-based

| Compound | pIC50 (Androgen receptor [1]) | pKi (Androgen receptor [2]) | pEC50 (Androgen receptor [3]) | pIC50 (Androgen receptor [4]) |
| --- | --- | --- | --- | --- |
| C[C@@H]1CNc2cc3[nH]c(=O)cc(C(F)(F)F)c3cc2[C@@H]1CCC(F)(F)F | 7.20 | < 6.00 | 7.09 |  |
| Oc1cc(C(F)(F)F)c2cc3c(cc2n1)NC[C@H]1CCCC[C@H]31 |  | 7.82 | 8.70 | < 5.00 |
| CC(C)C1CCNc2cc3[nH]c(=O)cc(C(F)(F)F)c3cc21 (stereo unspecified) | < 5.00 | 7.89 | 8.52 |  |
| CCC1CCNc2cc3c(cc21)c(C(F)(F)F)cc(=O)n3C (stereo unspecified) | 7.70 | 8.05 | < 5.00 |  |
| CCC1CCN(C=O)c2cc3nc(O)cc(C(F)(F)F)c3cc21 (stereo unspecified) |  | < 6.00 | 6.86 | < 5.00 |
| CCC1CCN(C)c2cc3c(cc21)c(C(F)(F)F)cc(=O)n3C (stereo unspecified) | 6.67 | 6.58 | < 5.00 |  |
| O=c1cc(C(F)(F)F)c2cc3c(cc2[nH]1)NC[C@@H]1CCC[C@H]31 | < 5.00 | 8.10 | 8.05 |  |
| CCC1CCN(C)c2cc3[nH]c(=O)cc(C(F)(F)F)c3cc21 (stereo unspecified) | < 5.00 | 6.20 | 6.80 |  |
| CCCC1CCNc2cc3nc(O)cc(C(F)(F)F)c3cc21 (stereo unspecified) | < 5.00 | 7.54 | 7.72 |  |
| CC1(C)CCNc2cc3[nH]c(=O)cc(C(F)(F)F)c3cc21 | 7.80 | 7.92 | 7.17 |  |
| C[C@H]1CNc2cc3nc(O)cc(C(F)(F)F)c3cc2C1CCC(F)(F)F (stereo partly specified) |  | 8.70 | 7.89 | 7.21 |
| CC1c2cc3c(C(F)(F)F)cc(O)nc3cc2NC[C@H]1C (stereo partly specified) |  | 8.10 | 7.66 | < 5.00 |
| CC(C)CC1CCNc2cc3nc(O)cc(C(F)(F)F)c3cc21 (stereo unspecified) |  | 7.66 | 7.60 | < 5.00 |
| CCC1(CC)CCNc2cc3nc(O)cc(C(F)(F)F)c3cc21 | 7.14 | 7.24 | < 5.00 |  |
| CC1CCNc2cc3nc(O)cc(C(F)(F)F)c3cc21 (stereo unspecified) | 6.59 | 8.05 | 7.82 |  |
| O=c1cc(C(F)(F)F)c2cc3c(cc2[nH]1)NCCC3c1cc(C(F)(F)F)cc(C(F)(F)F)c1 (stereo unspecified) | 6.60 | < 6.00 | < 5.00 |  |
| Oc1cc(C(F)(F)F)c2cc3c(cc2n1)NCCC3 | 7.92 | 7.72 | 6.50 |  |
| CCC1c2cc3c(C(F)(F)F)cc(=O)[nH]c3cc2NC[C@@H]1C (stereo partly specified) | 5.57 | 8.10 | 8.15 |  |
| Oc1cc(C(F)(F)F)c2cc3c(cc2n1)NC[C@@H]1CCCC[C@H]31 | < 5.00 | 8.70 | 8.52 |  |
| CC1c2cc3c(C(F)(F)F)cc(O)nc3cc2NC[C@@H]1C (stereo partly specified) |  | 7.80 | 8.00 | < 5.00 |
| CC(C)C[C@H]1c2cc3c(C(F)(F)F)cc(=O)[nH]c3cc2NC[C@@H]1C (relative stereo) | 7.54 | 7.14 | 7.25 |  |
| CC[C@H]1c2cc3c(C(F)(F)F)cc(=O)[nH]c3cc2NC[C@H]1C (relative stereo) |  | 7.57 | 8.15 | < 5.00 |
